These results are taken from patent US6380201B1, “Methods of treating or ameliorating the symptoms of common cold or allergic rhinitis with serotonin 5-HT1F agonists” (Eli Lilly and Company, priority 1997, dated 2002).

The structures appear in SMILES notation. Counter-ions that a name gives are not always drawn. Some results are limits rather than exact numbers.

`CN1CCC(c2c[nH]c3ccc(Sc4ccccc4)cc23)CC1`: the melting point lay within 147 to 150 °C.
Regarding `CN1CCC(c2c[nH]c3ccc(NC(=O)c4ccccc4)cc23)CC1.O=C(O)C(=O)O`, the melting point was found to be 130 °C.
As for `CN1CCC(c2c[nH]c3ccc(NC(=O)c4ccccc4Cl)cc23)CC1.O=C(O)/C=C/C(=O)O`, the melting point is 209 °C (dec.).
Turning to `CN1CCC(c2c[nH]c3ccc(NC(=O)c4cccc(Cl)c4)cc23)CC1.O=C(O)/C=C/C(=O)O`, the melting point was 185 °C (dec.).
For the compound `CN1CCC(c2c[nH]c3ccc(NC(=O)c4ccc(Cl)cc4)cc23)CC1.O=C(O)/C=C/C(=O)O`, the melting point was 163 °C (dec.).
Regarding `COc1ccccc1C(=O)Nc1ccc2[nH]cc(C3CCN(C)CC3)c2c1.O=C(O)/C=C/C(=O)O`, the melting point was 90 °C (dec.).
For `COc1cccc(C(=O)Nc2ccc3[nH]cc(C4CCN(C)CC4)c3c2)c1.O=C(O)/C=C/C(=O)O`, the melting point was 152 °C (dec.).
For `COc1ccc(C(=O)Nc2ccc3[nH]cc(C4CCN(C)CC4)c3c2)cc1.O=C(O)/C=C/C(=O)O` the value was 151 °C (dec.); for `CN1CCC(c2c[nH]c3ccc(NC(=O)c4ccco4)cc23)CC1.O=C(O)/C=C/C(=O)O`, 114 °C (dec.); for `CN1CCC(c2c[nH]c3ccc(C(=O)c4ccc(F)cc4)cc23)CC1`, 89 °C.
The value for `CN1CCC(c2c[nH]c3ccc(NC(=O)Cc4ccccc4)cc23)CC1.O=C(O)C(=O)O` was less than 90 °C; that for `CCN1CCC(c2c[nH]c3ccc(NC(=O)c4ccco4)cc23)CC1` was 178 to 179 °C.
The value for `CCN1CCC(c2c[nH]c3ccc(NC(=O)c4ccc(F)cc4)cc23)CC1.O=C(O)/C=C/C(=O)O` was 152 to 155 °C; that for `CN1CCC(c2c[nH]c3ccc(NC(=O)c4ccc(F)cc4Cl)cc23)CC1` was 159 to 162 °C.
`Cc1ccc(C(=O)c2ccc3[nH]cc(C4CCN(C)CC4)c3c2)cc1` displayed a melting point of 92 °C.
For `CN1CCC(c2c[nH]c3ccc(C(=O)c4ccc(C(F)(F)F)cc4)cc23)CC1` the value was 160 to 162 °C.
The value for `CN1CCC(c2c[nH]c3ccc(C(=O)c4ccc(OC(F)(F)F)cc4)cc23)CC1` was 172 to 175 °C.
In turn, `CN1CCC(c2c[nH]c3ccc(C(=O)c4ccc(N(C)C)cc4)cc23)CC1` came in with a melting point of 103 to 104 °C.
The value for `CN1CCC(c2c[nH]c3ccc(C(=O)c4ccc5ccccc5c4)cc23)CC1` was 92 °C; that for `CN1CCC(c2c[nH]c3ccc(C(=O)c4ccccn4)cc23)CC1` was 90 °C; that for `CN1CCC(c2c[nH]c3ccc(NC(=O)c4cccc5ccccc45)cc23)CC1.Cl` was 193 to 203 °C.
For `CN1CCC(c2c[nH]c3ccc(NC(=O)c4ccc5ccccc5c4)cc23)CC1` the value was 153 to 155.5 °C; for `O=C(Nc1ccc2[nH]cc(C3=CCNCC3)c2c1)c1ccc(F)cc1`, 241 °C (dec.).
Compound `O=C(Nc1ccc2[nH]cc(C3CCNCC3)c2c1)c1ccc(F)cc1` showed a melting point of 229 to 230 °C.
For `COc1ccc(Sc2ccc3[nH]cc(C4CCN(C)CC4)c3c2)cc1` the value was 160 to 162 °C; for `CN1CCC(c2c[nH]c3ccc(C(=O)c4ccc(Cl)cc4)cc23)CC1`, 133 °C.
The value for `CN1CC=C(c2c[nH]c3ccc(NS(C)(=O)=O)cc23)CC1` was 210 to 214 °C; that for `CN1CC=C(c2cn(C)c3ccc(NS(C)(=O)=O)cc23)CC1` was 198 to 202 °C; that for `Cc1[nH]c2ccc(NS(C)(=O)=O)cc2c1C1=CCN(C)CC1` was 176 to 184 °C.
With `CCS(=O)(=O)Nc1ccc2[nH]cc(C3=CCN(C)CC3)c2c1`, the melting point is 224 to 226 °C.
For `CN1CC=C(c2c[nH]c3ccc(NS(=O)(=O)N(C)C)cc23)CC1` the value was 207 to 208 °C; for `CCN1CC=C(c2c[nH]c3ccc(NS(C)(=O)=O)cc23)CC1`, 218 to 219 °C (dec.); for `CCCN1CC=C(c2c[nH]c3ccc(NS(C)(=O)=O)cc23)CC1`, 217 to 218.5 °C (dec.).
For `CC(C)N1CC=C(c2c[nH]c3ccc(NS(C)(=O)=O)cc23)CC1` the value was 211 to 213 °C (dec.); for `CCCCN1CC=C(c2c[nH]c3ccc(NS(C)(=O)=O)cc23)CC1`, 202 to 204 °C.
For `CN1CCC(c2c[nH]c3ccc(SCc4ccccc4)cc23)CC1` the value was 138 to 141 °C; for `CN1CCC(c2c[nH]c3ccc(NS(C)(=O)=O)cc23)CC1.O=C(O)C(=O)O`, 119.1 °C.
In the case of `Cc1[nH]c2ccc(NS(C)(=O)=O)cc2c1C1CCN(C)CC1`, the melting point was in the range of 124 to 128 °C.
The value for `CCS(=O)(=O)Nc1ccc2[nH]cc(C3CCN(C)CC3)c2c1` was 176 to 178 °C; that for `CN1CCC(c2c[nH]c3ccc(NS(=O)(=O)N(C)C)cc23)CC1` was 179 to 181 °C (dec.).
In turn, `CCN1CCC(c2c[nH]c3ccc(NS(C)(=O)=O)cc23)CC1` displayed a melting point of 179 to 181 °C.
For `CCCN1CCC(c2c[nH]c3ccc(NS(C)(=O)=O)cc23)CC1` the value was 87 to 90 °C.
For `CCCCN1CCC(c2c[nH]c3ccc(NS(C)(=O)=O)cc23)CC1` the value was 78 °C; for `CN1CCC(c2c[nH]c3ccc(NS(=O)(=O)c4ccccc4)cc23)CC1`, 246 to 249 °C (dec.); for `CN1CCC(c2c[nH]c3ccc(Sc4ccccn4)cc23)CC1`, 83 °C.
The value for `CN1CCC(c2c[nH]c3ccc(NS(=O)(=O)c4ccc(I)cc4)cc23)CC1` was greater than 250 °C; that for `CN1CCC(c2c[nH]c3ccc(N(S(=O)(=O)C(F)(F)F)S(=O)(=O)C(F)(F)F)cc23)CC1.Cl` was 175 to 185 °C (dec.); that for `CN1CCC(c2c[nH]c3ccc(Sc4ccc(Cl)cc4)cc23)CC1` was 148 to 150 °C.
Regarding `CN1CCC(c2c[nH]c3ccc(NC(=O)Nc4ccccc4)cc23)CC1.Cl`, the melting point lay within 215 to 220 °C.
The value for `CN1CCC(c2c[nH]c3ccc(C(=O)c4ccccc4)cc23)CC1` was 101 °C.
For `CCCCC(=O)c1ccc2[nH]cc(C3CCN(C)CC3)c2c1.Cl` the value was 242 to 245 °C; for `CN1CCC(c2c[nH]c3ccc(N4C(=O)c5ccccc5C4=O)cc23)CC1.O=C(O)C(=O)O`, 224 °C; for `CC(=O)Nc1ccc2[nH]cc(C3=CCN(C)CC3)c2c1`, 186 to 189 °C.
The value for `CCC(=O)Nc1ccc2[nH]cc(C3=CCN(C)CC3)c2c1.O=C(O)/C=C/C(=O)O` was 170 to 173 °C; that for `CN1CCC(c2c[nH]c3ccc(C(=O)Cc4ccccc4)cc23)CC1` was 69 °C.
Compound `CN1CC=C(c2c[nH]c3ccc(NC(=O)c4ccccc4)cc23)CC1` gave a melting point greater than 250 °C.
The value for `CN1CC=C(c2c[nH]c3ccc(NC(=O)c4ccc(Cl)cc4)cc23)CC1` was 224 to 226 °C.
Regarding `COc1ccc(C(=O)Nc2ccc3[nH]cc(C4=CCN(C)CC4)c3c2)cc1`, the melting point was 232 °C (dec.).
In turn, `CN1CC=C(c2c[nH]c3ccc(NC(=O)c4ccc(F)cc4Cl)cc23)CC1` returned a melting point of 212 to 222 °C.
`CCN1CC=C(c2c[nH]c3ccc(NC(=O)c4ccc(F)cc4)cc23)CC1`: the melting point is 127 to 135 °C (dec.).
Regarding `CN1CC=C(c2c[nH]c3ccc(NC(=O)c4ccco4)cc23)CC1`, the melting point is 190 °C (dec.).
With `CN1CC=C(c2c[nH]c3ccc(NC(=O)c4cccs4)cc23)CC1`, the melting point was 229 to 233 °C (dec.).
As to `CC(=O)Nc1ccc2[nH]cc(C3CCN(C)CC3)c2c1`, the melting point is 161 to 165 °C (dec.).
The value for `CCC(=O)Nc1ccc2[nH]cc(C3CCN(C)CC3)c2c1.O=C(O)/C=C/C(=O)O` was 88 to 92 °C (dec.).
For `CN1CCC(c2c[nH]c3ccc(NC(=O)C(C)(C)C)cc23)CC1` the value was 214 to 216 °C (dec.); for `CC(=O)c1ccc2[nH]c3c(c2c1)CC(N(C)C)CC3` (stereo not shown), 181 to 182 °C.
For `CN(C)[C@@H]1CCc2c([nH]c3ccc(Br)cc23)C1.I` the value was 252 °C.
Regarding `Br.C=C(C)C(=O)Nc1ccc2[nH]c3c(c2c1)CC(N(C)C)CC3` (stereo not shown), the melting point lay within 236 to 238 °C.
With `Br.CN(C)C1CCc2[nH]c3ccc(NC(=O)C4CC4)cc3c2C1` (stereo not shown), the melting point lay in the range of 216 to 218 °C.
The value for `Br.CN(C)C1CCc2[nH]c3ccc(NC(=O)C4CCC4)cc3c2C1` (stereo not shown) was 214 to 216 °C; that for `Br.CN(C)C1CCc2[nH]c3ccc(NC(=O)C4CCCCC4)cc3c2C1` (stereo not shown) was 224 to 226 °C.
`Cl.NC1CCc2[nH]c3ccc(NC(=O)c4ccc(F)cc4)cc3c2C1` (stereo not shown) had a melting point of 252 to 255 °C.
For `Cl.O=C(Nc1ccc2[nH]c3c(c2c1)CC(NCCc1ccccc1)CC3)c1ccc(F)cc1` (stereo not shown) the value was 207 to 208 °C; for `Cl.O=C(Nc1ccc2[nH]c3c(c2c1)CC(NCCc1ccc(F)cc1)CC3)c1ccc(F)cc1` (stereo not shown), 210 to 211 °C; for `NC1CCc2[nH]c3ccc(O)cc3c2C1` (stereo not shown), 230 °C (dec.).
The value for `Cl.Oc1ccc2[nH]c3c(c2c1)CC(NCCc1ccccc1)CC3` (stereo not shown) was 178 to 180 °C; that for `Cl.Oc1ccc2[nH]c3c(c2c1)CC(NCCc1ccc(F)cc1)CC3` (stereo not shown) was 160 °C (dec.); that for `Cl.Clc1ccc(CCNC2CCc3[nH]c4ccc(OCc5ccccc5)cc4c3C2)cc1` (stereo not shown) was 238 to 240 °C.
For the compound `Cl.Cn1cc(CCNC2CCc3[nH]c4ccc(O)cc4c3C2)cn1` (stereo not shown), the melting point was 286 °C (dec.).
For `CC(C)n1cc(CCNC2CCc3[nH]c4ccc(O)cc4c3C2)cn1.Cl` (stereo not shown) the value was 251 to 253 °C; for `CC(C)N1CCC(c2c[nH]c3ccc(NS(C)(=O)=O)cc23)CC1` (as salt: salt), 104 to 108 °C; for `CC(=O)c1ccc2[nH]cc(C3CCN(C)CC3)c2c1.Cl.O` (hydrate or solvate), 65 °C.
